Laboratory results from patent US9707305B2, “Formulas for diagnosing and treating hormone-dependent cancers and cancers of the organs responsible for steroid hormone synthesis” (Commissariat à l'énergie atomique et aux énergies …, priority 2011, dated 2017).

Assay: Biodistribution of the nano-emulsion of Example 1.1 (radioactivity and fluorescence per organ)
Assay type: in vivo
Experimental: In the following examples, the radioactivity was counted with the TRiCarb Counter (Ref: Packard, Liquid Scintillation Analyzers; Models 2200CA).
Fluobeam 700 (Fluoptics) is the apparatus with which the whole of the organs from the biodistribution were analyzed in fluorescence as well as the one with which the biodistribution kinetics of the nano-emulsions were established in vivo. This imaging system allows viewing of the fluorescence in spectral bands from 700 to 850 nm for a 650 nm excitation. The apparatus consists of an electric case containing the laser of class 3B, its power supply and an optical head containing the CCD camera.
The nano-emulsions of Example 1 were injected into FVB female and male mice. As a comparison, a mixture of three tracers ([3H]CHE, [14C]CO and DiD) (not formulated as a nano-emulsion) was injected in order to observe the distribution of the tracers in the absence of droplets being used as a distribution carrier.
Tables 6 to 14 provide the biodistribution results of each tracer ([3H]CHE, [14C]CO and DiD) expressed as a percentage of the dose injected per gram of tissue (or [3H]CHE and [14C]CO) or as fluorescence intensity (for DiD) depending on the organ of the mouse, 15 minutes (Table 6), 2 hours (Table 7), 4 hours (Table 8), 6 hours (Table 9), 16 hours (Table 10), 24 hours (Table 11), 72 hours (Table 12), 120 hours (Table 13) and 168 hours (Table 14), after injection into an FVB female mouse of the nano-emulsion of Example 1.1. (nano-emulsion according to the invention comprising the three tracers ([3H]CHE, [14C]CO and DiD).

[1] = 15 min after injection of nano-emulsion of Example 1.1, FVB female mouse
[2] = 2 h after injection of nano-emulsion of Example 1.1, FVB female mouse
[3] = 4 h after injection of nano-emulsion of Example 1.1, FVB female mouse
[4] = 16 h (Table 9 head) after injection of nano-emulsion of Example 1.1, FVB female mouse
[5] = 24 h (Table 10 head) after injection of nano-emulsion of Example 1.1, FVB female mouse
[6] = 48 h (Table 11 head) after injection of nano-emulsion of Example 1.1, FVB female mouse
[7] = 72 h after injection of nano-emulsion of Example 1.1, FVB female mouse
[8] = 120 h after injection of nano-emulsion of Example 1.1, FVB female mouse
[9] = 168 h after injection of nano-emulsion of Example 1.1, FVB female mouse

SMILES: CCCCCCCCCCCCCCCCCCN1/C(=C/C=C/C=C/C2=[N+](CCCCCCCCCCCCCCCCCC)c3ccccc3C2(C)C)C(C)(C)c2ccccc21.[O-][Cl+3]([O-])([O-])[O-] [DiD, l,r-dioctadécyl-3,3,3′,3′-tetramethylindodicarbocyanine (DiD) perchlorate]
- fluorescence intensity, Adrenal glands (MEAN) [1]: 457 photons per pixel, reduced to
- fluorescence intensity, Brain (MEAN) [1]: 145 photons per pixel, reduced to
- fluorescence intensity, Fat (MEAN) [1]: 147 photons per pixel, reduced to
- fluorescence intensity, Heart (MEAN) [1]: 451 photons per pixel, reduced to
- fluorescence intensity, Intestine (MEAN) [1]: 300 photons per pixel, reduced to
- fluorescence intensity, Kidney (MEAN) [1]: 228 photons per pixel, reduced to
- fluorescence intensity, Liver (MEAN) [1]: 979 photons per pixel, reduced to
- fluorescence intensity, Lung (MEAN) [1]: 618 photons per pixel, reduced to
- fluorescence intensity, Muscle (MEAN) [1]: 1 photons per pixel, reduced to
- fluorescence intensity, Ovary (MEAN) [1]: 484 photons per pixel, reduced to
- fluorescence intensity, Pancreas (MEAN) [1]: 216 photons per pixel, reduced to
- fluorescence intensity, Salivary glands (MEAN) [1]: 59 photons per pixel, reduced to
- fluorescence intensity, Spleen (MEAN) [1]: 727 photons per pixel, reduced to
- fluorescence intensity, Uterus (MEAN) [1]: 178 photons per pixel, reduced to
- fluorescence intensity, Adrenal glands (MEAN) [2]: 1050 photons per pixel, reduced to
- fluorescence intensity, Brain (MEAN) [2]: 250 photons per pixel, reduced to
- fluorescence intensity, Fat (MEAN) [2]: 247 photons per pixel, reduced to
- fluorescence intensity, Heart (MEAN) [2]: 389 photons per pixel, reduced to
- fluorescence intensity, Intestine (MEAN) [2]: 637 photons per pixel, reduced to
- fluorescence intensity, Kidneys (MEAN) [2]: 473 photons per pixel, reduced to
- fluorescence intensity, Liver (MEAN) [2]: 1421 photons per pixel, reduced to
- fluorescence intensity, Lung (MEAN) [2]: 727 photons per pixel, reduced to
- fluorescence intensity, Muscle (MEAN) [2]: 213 photons per pixel, reduced to
- fluorescence intensity, Ovary (MEAN) [2]: 1807 photons per pixel, reduced to
- fluorescence intensity, Pancreas (MEAN) [2]: 399 photons per pixel, reduced to
- fluorescence intensity, Salivary glands (MEAN) [2]: 288 photons per pixel, reduced to
- fluorescence intensity, Spleen (MEAN) [2]: 805 photons per pixel, reduced to
- fluorescence intensity, Uterus (MEAN) [2]: 814 photons per pixel, reduced to
- fluorescence intensity, Adrenal glands (MEAN) [3]: 1754 photons per pixel, reduced to
- fluorescence intensity, Brain (MEAN) [3]: 279 photons per pixel, reduced to
- fluorescence intensity, Fat (MEAN) [3]: 522 photons per pixel, reduced to
- fluorescence intensity, Heart (MEAN) [3]: 550 photons per pixel, reduced to
- fluorescence intensity, Intestine (MEAN) [3]: 974 photons per pixel, reduced to
- fluorescence intensity, Kidney (MEAN) [3]: 614 photons per pixel, reduced to
- fluorescence intensity, Liver (MEAN) [3]: 1845 photons per pixel, reduced to
- fluorescence intensity, Lungs (MEAN) [3]: 925 photons per pixel, reduced to
- fluorescence intensity, Muscle (MEAN) [3]: 236 photons per pixel, reduced to
- fluorescence intensity, Ovary (MEAN) [3]: 2781 photons per pixel, reduced to
- fluorescence intensity, Pancreas (MEAN) [3]: 527 photons per pixel, reduced to
- fluorescence intensity, Salivary glands (MEAN) [3]: 516 photons per pixel, reduced to
- fluorescence intensity, Spleen (MEAN) [3]: 955 photons per pixel, reduced to
- fluorescence intensity, Uterus (MEAN) [3]: 712 photons per pixel, reduced to
- fluorescence intensity, Adrenal glands (MEAN) [4]: 2355 photons per pixel, reduced to
- fluorescence intensity, Brain (MEAN) [4]: 259 photons per pixel, reduced to
- fluorescence intensity, Fat (MEAN) [4]: 532 photons per pixel, reduced to
- fluorescence intensity, Heart (MEAN) [4]: 444 photons per pixel, reduced to
- fluorescence intensity, Intestine (MEAN) [4]: 1139 photons per pixel, reduced to
- fluorescence intensity, Kidney (MEAN) [4]: 627 photons per pixel, reduced to
- fluorescence intensity, Liver (MEAN) [4]: 1661 photons per pixel, reduced to
- fluorescence intensity, Lungs (MEAN) [4]: 592 photons per pixel, reduced to
- fluorescence intensity, Muscle (MEAN) [4]: 289 photons per pixel, reduced to
- fluorescence intensity, Ovary (MEAN) [4]: 2915 photons per pixel, reduced to
- fluorescence intensity, Pancreas (MEAN) [4]: 564 photons per pixel, reduced to
- fluorescence intensity, Salivary glands (MEAN) [4]: 641 photons per pixel, reduced to
- fluorescence intensity, Spleen (MEAN) [4]: 978 photons per pixel, reduced to
- fluorescence intensity, Uterus (MEAN) [4]: 1759 photons per pixel, reduced to
- fluorescence intensity, Adrenal glands (MEAN) [5]: 2624 photons per pixel, reduced to
- fluorescence intensity, Brain (MEAN) [5]: 239 photons per pixel, reduced to
- fluorescence intensity, Fat (MEAN) [5]: 553 photons per pixel, reduced to
- fluorescence intensity, Heart (MEAN) [5]: 288 photons per pixel, reduced to
- fluorescence intensity, Intestine (MEAN) [5]: 777 photons per pixel, reduced to
- fluorescence intensity, Kidney (MEAN) [5]: 599 photons per pixel, reduced to
- fluorescence intensity, Liver (MEAN) [5]: 1675 photons per pixel, reduced to
- fluorescence intensity, Lung (MEAN) [5]: 667 photons per pixel, reduced to
- fluorescence intensity, Muscle (MEAN) [5]: 161 photons per pixel, reduced to
- fluorescence intensity, Ovary (MEAN) [5]: 3173 photons per pixel, reduced to
- fluorescence intensity, Pancreas (MEAN) [5]: 446 photons per pixel, reduced to
- fluorescence intensity, Salivary glands (MEAN) [5]: 411 photons per pixel, reduced to
- fluorescence intensity, Spleen (MEAN) [5]: 774 photons per pixel, reduced to
- fluorescence intensity, Uterus (MEAN) [5]: 971 photons per pixel, reduced to
- fluorescence intensity, Adrenal glands (MEAN) [6]: 1484 photons per pixel, reduced to
- fluorescence intensity, Brain (MEAN) [6]: 51 photons per pixel, reduced to
- fluorescence intensity, Fat (MEAN) [6]: 208 photons per pixel, reduced to
- fluorescence intensity, Heart (MEAN) [6]: 122 photons per pixel, reduced to
- fluorescence intensity, Intestine (MEAN) [6]: 481 photons per pixel, reduced to
- fluorescence intensity, Kidney (MEAN) [6]: 555 photons per pixel, reduced to
- fluorescence intensity, Liver (MEAN) [6]: 1868 photons per pixel, reduced to
- fluorescence intensity, Lungs (MEAN) [6]: 212 photons per pixel, reduced to
- fluorescence intensity, Muscle (MEAN) [6]: 32 photons per pixel, reduced to
- fluorescence intensity, Ovary (MEAN) [6]: 4018 photons per pixel, reduced to
- fluorescence intensity, Pancreas (MEAN) [6]: 202 photons per pixel, reduced to
- fluorescence intensity, Salivary glands (MEAN) [6]: 268 photons per pixel, reduced to
- fluorescence intensity, Spleen (MEAN) [6]: 342 photons per pixel, reduced to
- fluorescence intensity, Uterus (MEAN) [6]: 951 photons per pixel, reduced to
- fluorescence intensity, Adrenal glands (MEAN) [7]: 1135 photons per pixel, reduced to
- fluorescence intensity, Brain (MEAN) [7]: 43 photons per pixel, reduced to
- fluorescence intensity, Fat (MEAN) [7]: 159 photons per pixel, reduced to
- fluorescence intensity, Heart (MEAN) [7]: 113 photons per pixel, reduced to
- fluorescence intensity, Intestine (MEAN) [7]: 297 photons per pixel, reduced to
- fluorescence intensity, Kidney (MEAN) [7]: 365 photons per pixel, reduced to
- fluorescence intensity, Liver (MEAN) [7]: 1136 photons per pixel, reduced to
- fluorescence intensity, Lungs (MEAN) [7]: 120 photons per pixel, reduced to
- fluorescence intensity, Muscle (MEAN) [7]: 3 photons per pixel, reduced to
- fluorescence intensity, Ovary (MEAN) [7]: 2397 photons per pixel, reduced to
- fluorescence intensity, Pancreas (MEAN) [7]: 102 photons per pixel, reduced to
- fluorescence intensity, Salivary glands (MEAN) [7]: 237 photons per pixel, reduced to
- fluorescence intensity, Spleen (MEAN) [7]: 330 photons per pixel, reduced to
- fluorescence intensity, Uterus (MEAN) [7]: 514 photons per pixel, reduced to
- fluorescence intensity, Adrenal gland (MEAN) [8]: 1688 photons per pixel, reduced to
- fluorescence intensity, Brain (MEAN) [8]: 90 photons per pixel, reduced to
- fluorescence intensity, Fat (MEAN) [8]: 176 photons per pixel, reduced to
- fluorescence intensity, Heart (MEAN) [8]: 80 photons per pixel, reduced to
- fluorescence intensity, Intestine (MEAN) [8]: 279 photons per pixel, reduced to
- fluorescence intensity, Kidney (MEAN) [8]: 383 photons per pixel, reduced to
- fluorescence intensity, Liver (MEAN) [8]: 996 photons per pixel, reduced to
- fluorescence intensity, Lungs (MEAN) [8]: 53 photons per pixel, reduced to
- fluorescence intensity, Muscle (MEAN) [8]: 254 photons per pixel, reduced to
- fluorescence intensity, Ovary (MEAN) [8]: 2319 photons per pixel, reduced to
- fluorescence intensity, Pancreas (MEAN) [8]: 297 photons per pixel, reduced to
- fluorescence intensity, Salivary glands (MEAN) [8]: 120 photons per pixel, reduced to
- fluorescence intensity, Spleen (MEAN) [8]: 229 photons per pixel, reduced to
- fluorescence intensity, Uterus (MEAN) [8]: 563 photons per pixel, reduced to
- fluorescence intensity, Adrenal glands (MEAN) [9]: 660.62 photons per pixel, reduced to
- fluorescence intensity, Brain (MEAN) [9]: 40.28 photons per pixel, reduced to
- fluorescence intensity, Fat (MEAN) [9]: 164.55 photons per pixel, reduced to
- fluorescence intensity, Heart (MEAN) [9]: 117.29 photons per pixel, reduced to
- fluorescence intensity, Intestine (MEAN) [9]: 214.02 photons per pixel, reduced to
- fluorescence intensity, Kidneys (MEAN) [9]: 391.45 photons per pixel, reduced to
- fluorescence intensity, Liver (MEAN) [9]: 676.60 photons per pixel, reduced to
- fluorescence intensity, Lungs (MEAN) [9]: 1.35 photons per pixel, reduced to
- fluorescence intensity, Muscle (MEAN) [9]: 16.21 photons per pixel, reduced to
- fluorescence intensity, Ovary (MEAN) [9]: 1614.45 photons per pixel, reduced to
- fluorescence intensity, Pancreas (MEAN) [9]: 125.11 photons per pixel, reduced to
- fluorescence intensity, Salivary glands (MEAN) [9]: 216.84 photons per pixel, reduced to
- fluorescence intensity, Spleen (MEAN) [9]: 171.93 photons per pixel, reduced to
- fluorescence intensity, Uterus (MEAN) [9]: 697.92 photons per pixel, reduced to
